This is an account of results in patent US10457687B2, “Aminoacid derivatives, a process for their preparation and pharmaceutical compositions containing them” (LES LABORATOIRES SERVIER, priority 2015, dated 2019).

One may read the IC50 as the concentration at which inhibition is half-maximal. Usually inhibition stands for the share of the control response that was lost under treatment.

Chain of Mcl-1 protein (Q07820 whole entry): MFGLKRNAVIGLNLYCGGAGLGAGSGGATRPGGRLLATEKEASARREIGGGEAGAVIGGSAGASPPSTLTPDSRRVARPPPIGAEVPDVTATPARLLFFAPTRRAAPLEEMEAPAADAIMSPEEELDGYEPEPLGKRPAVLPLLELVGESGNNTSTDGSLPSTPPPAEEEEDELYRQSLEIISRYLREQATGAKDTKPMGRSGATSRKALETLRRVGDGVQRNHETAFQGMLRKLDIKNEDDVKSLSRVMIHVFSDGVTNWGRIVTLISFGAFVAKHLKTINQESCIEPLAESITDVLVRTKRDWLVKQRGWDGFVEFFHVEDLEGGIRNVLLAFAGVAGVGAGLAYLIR

The target of the first assay is Mcl-1 protein (Homo sapiens, UniProt Q07820). The experiment in a line: Inhibition of Mcl-1 by the fluorescence polarisation technique (Method 1 or Method 2). It is filed as binding. Conditions: fluorescence polarisation, Fluorescein labelled ligand; Method 1 (not underlined) or Method 2 (underlined); read-out: IC50 (μM) Mcl-1 FP. Summed up:
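Binding measured by FP, with Mcl-1 protein and fluorescein-labelled ligand mixed with compounds in an 11-point series at 5% final DMSO. Method 2 used 10 nM each of protein and ligand in phosphate buffer (20 mM Na2HPO4, 1 mM EDTA, 50 mM NaCl, pH 7.4); Method 1 used 5 nM protein, 1 nM ligand in HEPES buffer (10 mM HEPES, 150 mM NaCl, 0.05% Tween 20, pH 7.4).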
A general note: Polarisation of emitted light reports the rotation of a fluorescent probe.
Take `CCc1sc2ncnc(NC(Cc3ccccc3)C(=O)O)c2c1-c1cccc2ccccc12` [Example 101, N-[6-ethyl-(5Sa)-5-(naphthalen-1-yl)thieno[2,3-d]pyrimidin-4-yl]-D-phenylalanine]: the IC50 came to 0.462 µM.

Regarding `CCc1sc2ncnc(NC(Cc3ccccc3)C(=O)O)c2c1-c1cc(Cl)c(OCCN2CCN(C)CC2)c(Cl)c1C` [Example 55, N-((5Ra)-5-{3,5-dichloro-2-methyl-4-[2-(4-methylpiperazin-1-yl)ethoxy]phenyl}-6-ethylthieno[2,3-d]pyrimidin-4-yl)-D-phenylalanine], the IC50 was found to be 8.84 µM.

As to `CCc1sc2ncnc(NC(Cc3cccc(F)c3)C(=O)O)c2c1-c1cccc2ccccc12` [Example 179, N-[6-ethyl-(5Sa)-5-(naphthalen-1-yl)thieno[2,3-d]pyrimidin-4-yl]-3-fluoro-D-phenylalanine], the IC50 is 0.881 µM.

For `CC(O)c1sc2ncnc(N[C@H](Cc3ccccc3)C(=O)O)c2c1-c1cccc2ccccc12` (single isomer, unassigned) [Example 206, N-[6-(1-hydroxyethyl)-5-(naphthalen-1-yl)thieno[2,3-d]pyrimidin-4-yl]-D-phenylalanine], the IC50 came to 8.84 µM.

For the compound `CCc1sc2ncnc(N[C@H](CC3CC3)C(=O)O)c2c1-c1cccc2ccccc12` [Example 159, 3-cyclopropyl-N-[6-ethyl-5-(naphthalen-1-yl)thieno[2,3-d]pyrimidin-4-yl]-D-alanine], the IC50 stood at 1.77 µM.

Consider `CCc1sc2ncnc(NC(CC3CCCCC3)C(=O)O)c2c1-c1cccc2ccccc12` [Example 166, 3-cyclohexyl-N-[6-ethyl-(5Sa)-5-(naphthalen-1-yl)thieno[2,3-d]pyrimidin-4-yl]-D-alanine], for which the IC50 stood at 0.064 µM.

Turning to `CC=Cc1sc2ncnc(NC(Cc3ccccc3)C(=O)O)c2c1-c1cccc2ccccc12` [Example 108, N-{(5Sa)-5-(naphthalen-1-yl)-6-[(1E)-prop-1-en-1-yl]thieno[2,3-d]pyrimidin-4-yl}-D-phenylalanine], the IC50 was 0.079 µM.

In the case of `CCc1sc2ncnc(NC(Cc3ccccc3)C(=O)O)c2c1-c1cncc2ccccc12` [Example 81, N-[6-ethyl-(5Sa)-5-(isoquinolin-4-yl)thieno[2,3-d]pyrimidin-4-yl]-D-phenylalanine], the IC50 turned out to be 20.2 µM.

For the compound `CCc1sc2ncnc(NC(CCc3ccccc3)C(=O)O)c2c1-c1cccc2ccccc12` [Example 170, (2R)-2-{[6-ethyl-(5Sa)-5-(naphthalen-1-yl)thieno[2,3-d]pyrimidin-4-yl]amino}-4-phenylbutanoic acid], the IC50 was determined as 0.955 µM.

For the compound `CCc1sc2ncnc(NC(Cc3c(F)cccc3F)C(=O)O)c2c1-c1cccc(Cl)c1C` [Example 131, N-[(5Sa)-5-(3-chloro-2-methylphenyl)-6-ethylthieno[2,3-d]pyrimidin-4-yl]-2,6-difluoro-D-phenylalanine], the IC50 stood at 0.495 µM.

Turning to `O=C(O)[C@@H](Cc1ccccc1)Nc1ncnc2sc(C(F)F)c(-c3cccc4ccccc34)c12` (single isomer, unassigned) [Example 208, N-[6-(difluoromethyl)-5-(naphthalen-1-yl)thieno[2,3-d]pyrimidin-4-yl]-D-phenylalanine], the IC50 was 0.632 µM.

Turning to `CCc1sc2ncnc(NC(Cc3ccccc3)C(=O)O)c2c1-c1ccnc(Cl)c1C` [Example 78, N-[(5Sa)-5-(2-chloro-3-methylpyridin-4-yl)-6-ethylthieno[2,3-d]pyrimidin-4-yl]-D-phenylalanine], the 50% inhibitory concentration (IC50) was found to be 0.135 µM.

As to `CCCc1sc2ncnc(NC(Cc3ccccc3)C(=O)O)c2c1-c1cccc2ccccc12` [Example 253, N-[(5Ra)-5-(naphthalen-1-yl)-6-propylthieno[2,3-d]pyrimidin-4-yl]-D-phenylalanine], the IC50 came to 1.36 µM.

On to `CCc1sc2ncnc(NC(Cc3ccccc3C(F)(F)F)C(=O)O)c2c1-c1cccc(Cl)c1C` [Example 138, N-[(5Sa)-5-(3-chloro-2-methylphenyl)-6-ethylthieno[2,3-d]pyrimidin-4-yl]-2-(trifluoromethyl)-D-phenylalanine], for which the IC50 was determined as 0.664 µM.

In the case of `CCc1sc2ncnc(NC(Cc3ccccc3F)C(=O)O)c2c1-c1cccc2ccccc12` [Example 181, N-[6-ethyl-(5Sa)-5-(naphthalen-1-yl)thieno[2,3-d]pyrimidin-4-yl]-2-fluoro-D-phenylalanine], the IC50 came to 0.299 µM.

`CCc1sc2ncnc(NC(Cc3ccccc3OCc3cccc(Cl)c3)C(=O)O)c2c1-c1cccc(Cl)c1C` [Example 150, 2-[(3-chlorobenzyl)oxy]-N-[(5Sa)-5-(3-chloro-2-methylphenyl)-6-ethylthieno[2,3-d]pyrimidin-4-yl]-D-phenylalanine]: the IC50 amounted to 0.528 µM.

Staying with this assay, now noted: partial inhibitors; @ 7.4 μM test compound; read-out: percentage fluorescence polarisation inhibition, Mcl-1 FP.
In the case of `CCc1sc2ncnc(N[C@H](Cc3ccccc3)C(=O)O)c2c1-c1cccc2c1cnn2C` [Example 87, N-[6-ethyl-5-(1-methyl-1H-indazol-4-yl)thieno[2,3-d]pyrimidin-4-yl]-D-phenylalanine], the inhibition at 7.4 µM was 62.6%.

The assay is the same for the next values; noted with them: partial inhibitors; @ 10 μM test compound.
For `CCc1sc2ncnc(NC(Cc3ccccc3OCC(=O)N(C)C)C(=O)O)c2c1-c1cccc(Cl)c1C` [Example 141, N-[(5Ra)-5-(3-chloro-2-methylphenyl)-6-ethylthieno[2,3-d]pyrimidin-4-yl]-2-[2-(dimethylamino)-2-oxoethoxy]-D-phenylalanine], the “percentage fluorescence polarisation inhibition, Mcl-1 FP” value was determined as 26.78% @ 10 μM.

For the compound `Cc1c(Cl)cccc1-c1c(C2CC2)sc2ncnc(NC(Cc3ccccc3)C(=O)O)c12` [Example 216, N-[(5Ra)-5-(3-chloro-2-methylphenyl)-6-cyclopropyl-thieno[2,3-d]pyrimidin-4-yl]-D-phenylalanine], the “percentage fluorescence polarisation inhibition, Mcl-1 FP” value is given as 58.95% @ 10 μM.

Still in this assay, the particulars now being: partial inhibitors; @ 50 μM test compound.
As for `CCc1sc2ncnc(N[C@H](Cc3ccccc3)C(=O)O)c2c1-c1cccc2c1c(Cl)cn2CCN1CCCC1` [Example 232, N-((5Ra)-5-{3-chloro-1-[2-(pyrrolidin-1-yl)ethyl]-1H-indol-4-yl}-6-ethyl-thieno[2,3-d]pyrimidin-4-yl)-D-phenylalanine], the “percentage fluorescence polarisation inhibition, Mcl-1 FP” value is on record as 62.2% @ 50 μM.

In the case of `CCc1sc2ncnc(N[C@H](Cc3ccccc3OCCN3CCN(C)CC3)C(=O)O)c2c1-c1cccc(Cl)c1C` [Example 153, N-[(5Ra)-5-(3-chloro-2-methylphenyl)-6-ethylthieno[2,3-d]pyrimidin-4-yl]-2-[2-(4-methylpiperazin-1-yl)ethoxy]-D-phenylalanine], the “percentage fluorescence polarisation inhibition, Mcl-1 FP” value was 75.7% @ 50 μM.

Still in this assay, the particulars now being: partial inhibitors; @ 200 μM test compound.
For the compound `CC(C)(O)c1sc2ncnc(NC(Cc3ccccc3)C(=O)O)c2c1-c1cccc2ccccc12` [Example 209, N-[6-(2-hydroxypropan-2-yl)-(5Ra)-5-(naphthalen-1-yl)thieno[2,3-d]pyrimidin-4-yl]-D-phenylalanine], the “percentage fluorescence polarisation inhibition, Mcl-1 FP” value is 56.85% @ 200 μM.

Take `CCc1sc2ncnc(N[C@H](Cc3c[nH]c4ccccc34)C(=O)O)c2c1-c1cccc2ccccc12` [Example 184, N-[6-ethyl-(5Ra)-5-(naphthalen-1-yl)thieno[2,3-d]pyrimidin-4-yl]-D-tryptophan]: the “percentage fluorescence polarisation inhibition, Mcl-1 FP” value was 76.8% @ 200 μM.
